Data reported in patent US20050014849A1, “Antifungal phenylethylene” (priority 2001, published 2005).
Values after ≈ are worked out from the molar mass of the structure shown.

Key:
Experiment in all cases: Broth macrodilution MIC/MFC
[1] = tested on: Kluyveromyces marxianus ATCC 365534; assay type: cell-based
Description: (§1) TMPN was screened against yeasts by the broth macrodilution assay according to the NCCLS [7]. Yeasts were suspended and diluted as recommended to yield final inocula ranging from 0.5-2.5×10^3 cfu/ml. Tests were performed in sterile 12 by 75 mm plastic tubes containing two-fold dilutions of TMPN in 0.165 M morpholinepropanesulfonic acid buffered RPMI 1640 medium (pH 7.0). One tube was again left drug free (but contained an equivalent volume of DMSO) for a turbidity control. Tubes were incubated without agitation at the appropriate temperature (see Fungal Strains section above). MICs were determined after 72 h for Cryptococcus and after 48 h for other yeast genera. The MIC was defined as the lowest concentration of TMPN that inhibited all visible growth of the test organism (optically clear).
(§2) Minimum fungicidal concentrations (MFCs) were determined by subculturing 0.1 ml from each tube with no visible growth in the MIC broth macrodilution series onto the appropriate drug-free plates (see Fungal Strains section above).

[2] = tested on: Trichosporon cutaneum ATCC 28592; assay type: cell-based
Description: as §1, §2

K. apiculate ATCC 9774 = assay type: cell-based
Description: as §1, §2

Candida albicans (7) = assay type: cell-based
Description: as §1, §2

[3] = tested on: Blastoschizomyces capitalus ATCC 10663; assay type: cell-based
Description: as §1, §2

[4] = tested on: Fluconazole-resistant Cryptococcus neoformans (4); assay type: cell-based
Description: as §1, §2

[5] = tested on: C. uniguttulatus ATCC 66033; assay type: cell-based, Cryptococcus uniguttulatus
Description: as §1, §2

[6] = tested on: C. uniguttulatus ATCC 34143; assay type: cell-based, Cryptococcus uniguttulatus
Description: as §1, §2

C. utilis ATCC 22023 = assay type: cell-based, Candida utilis
Description: as §1, §2

C. utilis ATCC 9226 = assay type: cell-based, Candida utilis
Description: as §1, §2

C. neoformans (24) = assay type: cell-based, Cryptococcus neoformans
Description: as §1, §2

C. neoformans ATCC 14116 = assay type: cell-based, Cryptococcus neoformans
Description: as §1, §2

C. neoformans ATCC 32045 = assay type: cell-based, Cryptococcus neoformans
Description: as §1, §2

C. neoformans ATCC 66031 = assay type: cell-based, Cryptococcus neoformans
Description: as §1, §2

C. rugosa (7) = assay type: cell-based, Candida rugosa
Description: as §1, §2

[7] = tested on: C. parapsilosis ATCC 22019; assay type: cell-based, Candida parapsilosis
Description: as §1, §2

C. parapsilosis (10) = assay type: cell-based, Candida parapsilosis
Description: as §1, §2

T. mucoides ATCC 90046 = assay type: cell-based, Trichosporon mucoides
Description: as §1, §2

For `COc1cc(C=C[N+](=O)[O-])cc(OC)c1OC` [TMPN, 1-(3′,4′,5′-trimethoxyphenyl)-2-nitro-ethylene], the “MFC Range” value [1] was 4 µg/mL (≈ 16.7 µM), the “MIC Range” value [1] was 4 µg/mL (≈ 16.7 µM) and the “MFC Range” value [2] was 8 µg/mL (≈ 33.4 µM). For the same molecule, the “MIC Range” value [2] was 4 µg/mL (≈ 16.7 µM), the “MFC Range” value (K. apiculate ATCC 9774) was 2 µg/mL (≈ 8.36 µM) and the “MIC Range” value (K. apiculate ATCC 9774) was 1 µg/mL (≈ 4.18 µM). The “share of isolates with MFC/MIC ratio <2” value (Candida albicans (7); C. albicans clinical isolates) was 71%, the “MIC Range” value (Candida albicans (7); Candida albicans (7)) was 4 to 32 µg/mL and the “share of isolates with MFC/MIC ratio ≦2” value (Candida albicans (7); Candida albicans clinical isolates) was 71%. For the same molecule, the “MFC Range” value [3] was 32 µg/mL (≈ 134 µM), the “MIC Range” value [3] was 8 µg/mL (≈ 33.4 µM) and the “MFC Range” value [4] was 4 to 16 µg/mL. The “MIC Range” value [4] was 4 to 8 µg/mL, the “MFC Range” value [5] was 32 µg/mL (≈ 134 µM) and the “MIC Range” value [5] was 16 µg/mL (≈ 66.9 µM). For the same molecule, the “MFC Range” value [6] was 16 µg/mL (≈ 66.9 µM), the “MIC Range” value [6] was 8 µg/mL (≈ 33.4 µM) and the “MFC Range” value (C. utilis ATCC 22023) was 8 µg/mL (≈ 33.4 µM). The “MIC Range” value (C. utilis ATCC 22023) was 8 µg/mL (≈ 33.4 µM), the “MFC Range” value (C. utilis ATCC 9226) was 8 µg/mL (≈ 33.4 µM) and the “MIC Range” value (C. utilis ATCC 9226) was 4 µg/mL (≈ 16.7 µM). For the same molecule, the “MFC 50% (MFC at which 50% of the strains are killed)” value (C. neoformans (24); C. neoformans (24)) was 8 µg/mL, the “MFC 90% (MFC at which 90% of the strains are killed)” value (C. neoformans (24); C. neoformans (24)) was 16 µg/mL and the “MFC Range” value (C. neoformans (24); C. neoformans (24)) was 4 to 32 µg/mL. The “MIC Range” value (C. neoformans (24); C. neoformans (24)) was 2 to 16 µg/mL, the “share of isolates with MFC/MIC ratio <2” value (C. neoformans (24); C. neoformans clinical isolates) was 96% and the “share of isolates with MFC/MIC ratio ≦2” value (C. neoformans (24); Cryptococcus neoformans clinical isolates) was 96%. For the same molecule, the MIC50 (C. neoformans (24); Cryptococcus neoformans, C. neoformans (24), read-out: MIC 50% (MIC at which 50% of the strains are inhibited)) was 4 µg/mL (≈ 16.7 µM), the MIC90 (C. neoformans (24); Cryptococcus neoformans, C. neoformans (24), read-out: MIC 90% (MIC at which 90% of the strains are inhibited)) was 8 µg/mL (≈ 33.4 µM) and the “MFC Range” value (C. neoformans ATCC 14116) was 16 µg/mL (≈ 66.9 µM). For the same molecule, the “MIC Range” value (C. neoformans ATCC 14116) was 8 µg/mL (≈ 33.4 µM), the “MFC Range” value (C. neoformans ATCC 32045) was 4 µg/mL (≈ 16.7 µM) and the “MIC Range” value (C. neoformans ATCC 32045) was 4 µg/mL (≈ 16.7 µM). For the same molecule, the “MFC Range” value (C. neoformans ATCC 66031) was 4 µg/mL (≈ 16.7 µM), the “MIC Range” value (C. neoformans ATCC 66031) was 2 µg/mL (≈ 8.36 µM) and the “MIC Range” value (C. rugosa (7)) was 1 to 64 µg/mL. The “MFC Range” value [7] was 32 µg/mL (≈ 134 µM), the “MIC Range” value [7] was 16 µg/mL (≈ 66.9 µM) and the “MIC Range” value (C. parapsilosis (10)) was 16 to 32 µg/mL. For the same molecule, the “MFC Range” value (T. mucoides ATCC 90046) was 32 µg/mL (≈ 134 µM) and the “MIC Range” value (T. mucoides ATCC 90046) was 16 µg/mL (≈ 66.9 µM).
